In brackets after ≈: the same amount, converted by molar mass. Activity calls are given as the source filed them. The rule behind the calls is not given here.
How the values were obtained:
[1] = Distribution coefficient between 1-Octanol and aqueous phosphate buffer, logD of the compound at pH 7.4 by shake-flask method; format: physicochemical
[2] = Solubility in phosphate buffer at pH 7.4; format: physicochemical
[3] = Plasma protein binding in human assessed as free fraction; format: ADME, cell-free
[4] = Inhibition of JAK/STAT signaling pathway in human U-937 cells assessed as inhibition of IL-4 stimulated STAT6 phosphorylation; format: cell-based
[5] = Inhibition of JAK/STAT signaling pathway in human U-937 cells assessed as inhibition of IL-13 stimulated STAT6 phosphorylation; format: cell-based
[6] = Thermodynamic solubility of the compound in phosphate buffer at pH 6.5 measured after 24 hrs by HPLC-MS analysis; format: physicochemical; details: read-out: Therm_solubility
[7] = Apparent permeability of compound across apical to basolateral side in human Caco-2 cells at pH 7.4; format: ADME, cell-based; details: Caco-2, pH 7.4
[8] = Efflux ratio of apparent permeability across apical to basolateral side in human Caco-2 cells at pH 7.4; format: ADME, cell-based; details: Caco-2, pH 7.4
[9] = Volume of distribution at steady state in Han Wistar rat at 0.5 mg/kg, iv; format: ADME, organism-based; details: in vivo, read-out: Vdss
[10] = Drug uptake in lung of rat at 0.020 micromol/kg, IT; format: ADME, tissue-based; details: in vivo, other, dose 0.02 µmol/kg
[11] = AUC(0 to 24 hrs) in rat at 0.020 micromol/kg, IT; format: ADME; set-up: dose 0.02 µmol/kg, route it; details: in vivo, 0.02 µmol/kg
[12] = Metabolic stability in human hepatocyte assessed as intrinsic clearance measured per 10^6 cells; format: ADME, cell-based; details: hepatocytes, read-out: CLH
[13] = Metabolic stability in rat hepatocyte assessed as intrinsic clearance measured per 10^6 cells; format: ADME, cell-based; details: hepatocytes, read-out: CLH
[14] = Thermodynamic solubility of the compound in phosphate buffer at pH 7.4 measured after 24 hrs by HPLC-MS analysis; format: physicochemical; details: read-out: Therm_solubility
[15] = Drug uptake in lung of rat at 0.06 to 24.79 microg/kg via inhalation measured upto 24 hrs by LC-MS/MS analysis; format: ADME, tissue-based; details: in vivo, inhaled_or_intranasal, dose 0.06-24.79 µg/kg
[16] = biological target: T1, Tyrosine-protein kinase JAK1 (Homo sapiens, UniProt P23458); test: Inhibition of GST-tagged human recombinant JAK1 (866 to 1154 residues) expressed in insect cells
[17] = biological target: T2, Tyrosine-protein kinase JAK3 (Homo sapiens, UniProt P52333); test: Inhibition of GST-tagged human recombinant JAK3 (781 to 1124 residues) expressed in insect cells
T2 sequence (P52333 whole entry): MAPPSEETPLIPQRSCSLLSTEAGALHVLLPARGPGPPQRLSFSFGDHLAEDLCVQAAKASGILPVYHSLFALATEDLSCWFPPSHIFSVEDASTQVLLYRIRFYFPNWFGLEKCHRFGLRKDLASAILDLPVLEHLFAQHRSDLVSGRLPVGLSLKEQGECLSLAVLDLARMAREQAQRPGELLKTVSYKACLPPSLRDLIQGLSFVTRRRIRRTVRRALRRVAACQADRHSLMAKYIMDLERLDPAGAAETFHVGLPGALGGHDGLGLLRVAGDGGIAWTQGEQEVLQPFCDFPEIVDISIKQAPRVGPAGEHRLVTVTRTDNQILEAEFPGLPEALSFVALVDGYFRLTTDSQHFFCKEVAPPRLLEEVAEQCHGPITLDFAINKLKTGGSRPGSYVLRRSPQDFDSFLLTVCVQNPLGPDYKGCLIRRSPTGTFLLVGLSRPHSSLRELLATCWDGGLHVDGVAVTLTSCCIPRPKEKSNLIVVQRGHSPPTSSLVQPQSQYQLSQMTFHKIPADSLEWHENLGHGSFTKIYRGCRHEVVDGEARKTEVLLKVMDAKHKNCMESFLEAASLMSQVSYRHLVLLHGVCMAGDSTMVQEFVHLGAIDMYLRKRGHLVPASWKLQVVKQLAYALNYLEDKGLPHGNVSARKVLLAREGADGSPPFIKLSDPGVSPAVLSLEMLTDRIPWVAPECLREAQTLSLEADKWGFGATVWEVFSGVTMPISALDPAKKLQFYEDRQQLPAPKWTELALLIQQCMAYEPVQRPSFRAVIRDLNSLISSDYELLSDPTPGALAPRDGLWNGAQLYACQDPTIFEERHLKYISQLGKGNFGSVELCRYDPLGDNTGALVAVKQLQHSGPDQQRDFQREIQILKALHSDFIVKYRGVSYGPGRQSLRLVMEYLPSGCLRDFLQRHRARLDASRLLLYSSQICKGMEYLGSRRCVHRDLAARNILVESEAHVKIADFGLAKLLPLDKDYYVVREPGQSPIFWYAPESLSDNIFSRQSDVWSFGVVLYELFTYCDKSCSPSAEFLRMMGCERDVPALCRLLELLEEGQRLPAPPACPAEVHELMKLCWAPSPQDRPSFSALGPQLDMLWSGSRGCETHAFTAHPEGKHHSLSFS

[18] = biological target: Non-receptor tyrosine-protein kinase TYK2 (Homo sapiens, UniProt P29597); test: Inhibition of GST-tagged human recombinant TYK2 (833 to 1187 residues) expressed in insect cells
[19] = Metabolic stability in human liver microsomes assessed as intrinsic clearance; format: ADME, Microsome; details: read-out: CLH
[20] = Terminal half life in Han Wistar rat at 1 mg/kg, po; format: ADME, organism-based; details: in vivo, read-out: beta t1/2 (converted)
[21] = Volume of distribution at steady state in Han Wistar rat at 1 mg/kg, po or 0.5 mg/kg, iv; format: ADME, organism-based; details: in vivo
[22] = Oral bioavailability in Han Wistar rat at 1 mg/kg; format: ADME, organism-based; details: in vivo
[23] = Toxicity in human CD4+ T cell assessed as reduction in cell viability measured after 5 days by eFluor780 staining based flow cytometry analysis; details: 120 h, dose 1-10000 nM, time 5 day
[24] = test system: CD4+ T cell; test: Antiinflammatory activity in human CD4+ T cell assessed as reduction in CD25 expression measured after 5 days by eFluor780 staining based flow cytometry analysis; format: functional; details: dose 1-10000 nM, time 5.0 day
[25] = test system: Th1 cell; test: Inhibition of human naive Th1 cell differentiation assessed as decrease in IFNg production measured after 5 days by MSD assay; format: functional, cell-based; details: dose 1-10000 nM, time 5.0 day
[26] = test system: Th2 cell; test: Inhibition of human naive Th2 cell differentiation assessed as decrease in IL-4 production measured after 5 days by MSD assay; format: functional, cell-based; details: dose 1-10000 nM, time 5.0 day
[27] = test system: Th17; test: Inhibition of human memory-derived Th17 cell differentiation assessed as decrease in IL-17 production measured after 5 days by MSD assay; format: functional, cell-based; details: time 5.0 day
[28] = test system: Th2 cell; test: Inhibition of human naive Th2 cell differentiation assessed as decrease in IL-5 production measured after 5 days by MSD assay; format: functional, cell-based; details: time 5.0 day
[29] = test system: Th2 cell; test: Inhibition of human naive Th2 cell differentiation assessed as decrease in IL-13 production measured after 5 days by MSD assay; format: functional, cell-based; details: time 5.0 day
[30] = Toxicity in human naive Th1 cell assessed as reduction in cell viability at 1 to 10000 nM; format: cell-based; details: 10 µM, dose 1-10000 nM
[31] = Toxicity in human naive Th2 cell assessed as reduction in cell viability at 1 to 10000 nM; format: cell-based; details: 10 µM, dose 1-10000 nM
[32] = Toxicity in human memory-derived Th17 cells assessed as reduction in cell viability at 1 to 10000 nM; format: cell-based; details: th17, 10 µM, dose 1-10000 nM
[33] = Inhibition of JAK/STAT signaling pathway in human CD4+ T cell assessed as inhibition of IL-4 stimulated STAT6 phosphorylation preincubated for 20 to 60 mins followed by IL-4 stimulation measured after 15 mins by flow cytometry analysis; format: cell-based
[34] = Inhibition of JAK/STAT signaling pathway in human CD14-positive cell monocytes isolated from human PBMC assessed as inhibition of IL-4 stimulated STAT6 phosphorylation preincubated for 20 to 60 mins followed by IL-4 stimulation measured after 15 mins by flow cytometry analysis; format: cell-based
[35] = Inhibition of JAK/STAT signaling pathway in human CD14-positive cell monocytes isolated from human PBMC assessed as inhibition of IL-13 stimulated STAT6 phosphorylation preincubated for 20 to 60 mins followed by IL-13 stimulation measured after 15 mins by flow cytometry analysis; format: cell-based
[36] = biological target: T1, Tyrosine-protein kinase JAK1; test: Inhibition of JAK1 in human CD14-positive cell monocytes isolated from human PBMC assessed as reduction in dendritic cells development measured after 5 days by flow cytometry analysis; format: cell-based; details: dose 10-1000 nM, time 5.0 day
[37] = biological target: T1, Tyrosine-protein kinase JAK1; test: Inhibition of JAK1 in human CD14-positive cell monocytes isolated from human PBMC assessed as reduction in mature dendritic phenotype by measuring CD14 expression level at 100 nM measured after 5 days by CD14 APC staining based flow cytometry analysis; details: time 5.0 day
[38] = biological target: T1, Tyrosine-protein kinase JAK1; test: Inhibition of JAK1 in human CD14-positive cell monocytes isolated from human PBMC assessed as reduction in mature dendritic phenotype by measuring CD11c expression level at 100 nM measured after 5 days by CD11c PE-CF594 staining based flow cytometry analysis; details: time 5.0 day
[39] = 1-octanol/aqueous phosphate buffer, read-out: logD

T1 sequence (P23458 whole entry, the tested form may be a part): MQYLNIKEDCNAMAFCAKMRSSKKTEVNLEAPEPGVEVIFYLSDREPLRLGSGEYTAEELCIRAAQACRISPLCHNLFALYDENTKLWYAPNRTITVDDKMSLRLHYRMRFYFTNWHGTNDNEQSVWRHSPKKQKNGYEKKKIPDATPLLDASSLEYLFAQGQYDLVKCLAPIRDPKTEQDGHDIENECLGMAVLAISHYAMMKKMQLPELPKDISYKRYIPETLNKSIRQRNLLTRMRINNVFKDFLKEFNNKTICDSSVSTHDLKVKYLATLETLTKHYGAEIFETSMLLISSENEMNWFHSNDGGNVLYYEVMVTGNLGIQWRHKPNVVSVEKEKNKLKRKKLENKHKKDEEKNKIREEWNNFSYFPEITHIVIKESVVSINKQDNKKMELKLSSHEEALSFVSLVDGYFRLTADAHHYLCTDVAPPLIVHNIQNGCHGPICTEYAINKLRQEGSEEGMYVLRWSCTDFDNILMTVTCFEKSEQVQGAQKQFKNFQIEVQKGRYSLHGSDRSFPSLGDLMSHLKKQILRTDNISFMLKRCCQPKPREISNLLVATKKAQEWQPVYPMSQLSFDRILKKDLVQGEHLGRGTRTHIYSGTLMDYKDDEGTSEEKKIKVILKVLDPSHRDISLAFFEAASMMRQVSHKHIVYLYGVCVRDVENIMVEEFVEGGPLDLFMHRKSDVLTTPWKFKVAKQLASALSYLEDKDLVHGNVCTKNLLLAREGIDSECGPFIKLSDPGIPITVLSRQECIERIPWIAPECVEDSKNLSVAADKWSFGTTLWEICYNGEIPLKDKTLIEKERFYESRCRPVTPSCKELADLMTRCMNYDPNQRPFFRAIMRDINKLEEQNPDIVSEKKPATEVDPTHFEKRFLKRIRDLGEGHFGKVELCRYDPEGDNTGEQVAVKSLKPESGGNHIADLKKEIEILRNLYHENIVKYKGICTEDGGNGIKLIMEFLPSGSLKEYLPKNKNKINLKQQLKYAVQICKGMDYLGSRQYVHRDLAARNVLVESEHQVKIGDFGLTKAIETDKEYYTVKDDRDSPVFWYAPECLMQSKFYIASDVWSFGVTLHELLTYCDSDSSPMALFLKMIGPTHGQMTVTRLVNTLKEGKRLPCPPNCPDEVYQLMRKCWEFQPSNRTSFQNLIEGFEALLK
Chain of Non-receptor tyrosine-protein kinase TYK2 (P29597 whole entry, the tested form may be a part): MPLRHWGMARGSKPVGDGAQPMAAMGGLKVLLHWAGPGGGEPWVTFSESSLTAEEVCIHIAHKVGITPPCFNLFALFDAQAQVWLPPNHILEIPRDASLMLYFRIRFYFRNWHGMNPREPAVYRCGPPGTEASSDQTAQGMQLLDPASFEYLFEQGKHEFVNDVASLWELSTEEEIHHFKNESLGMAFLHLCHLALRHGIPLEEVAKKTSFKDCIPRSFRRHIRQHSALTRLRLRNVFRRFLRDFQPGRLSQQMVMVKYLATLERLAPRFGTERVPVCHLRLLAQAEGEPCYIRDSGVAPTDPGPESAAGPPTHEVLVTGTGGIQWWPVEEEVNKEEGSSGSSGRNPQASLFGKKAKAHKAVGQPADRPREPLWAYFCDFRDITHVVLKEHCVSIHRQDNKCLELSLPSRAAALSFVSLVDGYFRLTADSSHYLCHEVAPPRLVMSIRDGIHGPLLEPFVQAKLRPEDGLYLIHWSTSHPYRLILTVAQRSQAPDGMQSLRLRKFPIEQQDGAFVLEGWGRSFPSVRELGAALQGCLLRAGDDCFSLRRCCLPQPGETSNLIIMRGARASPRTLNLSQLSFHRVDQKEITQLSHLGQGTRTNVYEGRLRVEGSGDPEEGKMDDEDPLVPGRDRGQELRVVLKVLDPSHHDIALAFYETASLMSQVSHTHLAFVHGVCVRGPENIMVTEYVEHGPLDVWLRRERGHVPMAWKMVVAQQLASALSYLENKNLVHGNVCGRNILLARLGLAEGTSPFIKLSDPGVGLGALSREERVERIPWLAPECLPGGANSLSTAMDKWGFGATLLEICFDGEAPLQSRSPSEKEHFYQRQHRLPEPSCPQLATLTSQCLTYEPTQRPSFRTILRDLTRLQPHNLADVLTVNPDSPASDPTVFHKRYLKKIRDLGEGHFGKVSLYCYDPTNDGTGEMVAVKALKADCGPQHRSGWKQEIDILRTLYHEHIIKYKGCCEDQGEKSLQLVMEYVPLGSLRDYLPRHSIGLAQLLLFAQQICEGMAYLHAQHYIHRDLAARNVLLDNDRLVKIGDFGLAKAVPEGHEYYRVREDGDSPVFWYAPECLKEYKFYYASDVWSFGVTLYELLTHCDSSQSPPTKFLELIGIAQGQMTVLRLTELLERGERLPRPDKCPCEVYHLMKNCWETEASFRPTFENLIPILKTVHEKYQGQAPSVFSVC

SMILES | logD [1, 39] | solubility [2] [µM] | fraction unbound [3] | IC50 [4] [nM] | IC50 [5] [nM] | solubility thermodynamic at 24 h [6] [µM] | Papp A→B [7] [×10⁻⁶ cm/s] | Vd [9] [L/kg] | Drug uptake [10] | AUC(0-t) [11] [µM·h] | solubility thermodynamic at 24 h [14] [µM] | Activity [23] | Activity [24] | inhibition [25] | inhibition [26] | inhibition [27] | inhibition [28] | inhibition [29] | Activity [30] | Activity [31] | also measured
CC[C@H](C(=O)Nc1cccc2c(-c3nc(Nc4cccc(S(C)(=O)=O)c4F)ncc3C)c[nH]c12)N1CCN(C)CC1 | 2.8 | 11 (≈ 6.38 µg/mL) | 0.05 | 15 | 22 | 104 (≈ 60.3 µg/mL) | 2.7 | 9 | Active | 1.6 | – | – | – | – | – | – | – | – | – | – | efflux ratio [8]: 3.6
COC[C@H](C(=O)Nc1cccc2c(-c3nc(Nc4cccc(S(C)(=O)=O)c4F)ncc3F)c[nH]c12)N1CCN(C)CC1 [LONDAMOCITINIB] | – | 6 (≈ 3.6 µg/mL) | 0.08 | 24 | – | – | 2.7 | 11 | Active | 8.6 | 7 (≈ 4.2 µg/mL) | Dose-Dependent Effect | Dose-Dependent Effect | Dose-Dependent Effect | Dose-Dependent Effect | Dose-Dependent Effect | Dose-Dependent Effect | Dose-Dependent Effect | Non-Toxic | Non-Toxic | hepatocyte CLint [12]: 1.3 µL/min/1e6 cells; hepatocyte CLint [13]: 6.9 µL/min/1e6 cells; logD ([1]; octanol/water): 2.6; Drug uptake [15]: Active; IC50 [16]: 0.54 nM; IC50 [17]: > 10000 nM; IC50 [18]: 657 nM; microsomal CLint [19]: 25 µL/min/mg; half-life [20]: 4.7 h; Vdss [21]: 9.9 L/kg; bioavailability [22]: 44%; Activity [32]: Non-Toxic; IC50 [33]: 21 nM; IC50 [34]: 20 nM; IC50 [35]: 28 nM; inhibition [36]: Dose-Dependent Effect; Activity [37]: Active; Activity [38]: Active
C[C@@H]1CCN(C(=O)CC#N)C[C@@H]1N(C)c1ncnc2[nH]ccc12 [TOFACITINIB] | – | – | – | – | – | – | – | – | – | – | – | Dose-Dependent Effect | Dose-Dependent Effect | Dose-Dependent Effect | Dose-Dependent Effect | Dose-Dependent Effect | Dose-Dependent Effect | Dose-Dependent Effect | Non-Toxic | Non-Toxic | Activity [32]: Non-Toxic; IC50 [33]: 53 nM; IC50 [34]: 65 nM; IC50 [35]: 57 nM
COC[C@H](C(=O)Nc1cccc2c(-c3nc(Nc4cccc(S(C)(=O)=O)c4F)ncc3C)c[nH]c12)N1CCN(C)CC1 | 2.4 | 38 (≈ 22.6 µg/mL) | 0.09 | 13 | 18 | 289 (≈ 172 µg/mL) | 2.3 | – | Active | 0.7 | 40 (≈ 23.8 µg/mL) | – | – | – | – | – | – | – | – | – | –

Reference: ChEMBL document CHEMBL5365521, “Discovery of the Potent and Selective Inhaled Janus Kinase 1 Inhibitor AZD4604 and Its Preclinical Characterization” (J Med Chem, 2023)
